Experimental data from patent publication US20240226041A1, “METHODS AND COMPOSITIONS FOR TREATMENT OF NEUROPATHIC PAIN USING STAT3 INHIBITORS” (priority 2021, published 2024).

Tests used:
STAT3βtr = biological target: T1, STAT3βtr (Homo sapiens, UniProt P40763); assay: STAT3 alkylation study, targeted LC-MS/MS (MRM, QTrap 5500) of tryptic digests; format: biochemical; settings: for number of STAT3βtr peptides alkylated: natively folded STAT3βtr, conditions optimal for alkylation, LC-MS/MS of tryptic digest
T1 construct: STAT3 (127-722) cDNA was cloned into a pET15b vector; made in house; host or cells: E. coli BL21 (DE), pET15b
Text: To examine if this was a possibility, recombinant STAT3 was generated post-translationally unmodified in bacteria using a cDNA construct in which the domain containing the N-terminal oligomerization domain was deleted (STAT3βtr); this domain is not necessary for native folding of the core domains of STAT3 (CCD, DBD, linker domain, and SH2 domain) and its removal markedly improves recombinant STAT3 protein solubility. STAT3βtr contains 11 Cys residues. To determine how many of these Cys residues are available to be alkylated when soluble protein is natively folded, we incubated STAT3βtr with two protein alkylating agents, iodoacetamide and N-ethylmaleimide (NEM) under conditions optimal for alkylation (FIG. 11A-11B). […] The identity of the peptides were confirmed by performing full MS/MS spectra on the detected transitions. […] Five of the peptides contained a single alkylated Cys, while one of the peptides contained two alkylated Cys residues.
Expression and purification of recombinant STAT3. STAT3 (127-722) cDNA was cloned into a pET15b vector and transformed in BL21 (DE) (Life Technologies, Inc. Woburn, MA) Expression of the recombinant protein was inducing by 0.5 mM IPTG, at 20° C. for 5 hr. The recombinant STAT3 protein was purified by ammonium sulfate precipitation followed by an ion exchange step with HiTrap Q columns (GE Healthcare Bio-Sciences, Uppsala Sweden) and size exclusion chromatography to achieve purity of over 98%.
(§1) STAT3 alkylation studies. Purified recombinant core fragment of STAT3β protein in ammonium bicarbonate buffer (10 μM) was mixed with each compound at a final concentration of 100 μM. The protein mixture was then incubated at 37° C. overnight. Samples were reduced with 5 mM DTT at 37 °C for one hour and further alkylated with iodoacetamide (15 mM) for 30 minutes at RT in the dark, followed by digestion with trypsin gold in a dry incubator at 37° C. overnight. Formic acid was added the next day to 5% and each protein sample was diluted in 5 mM ammonium acetate containing 0.5% formic acid immediately prior to analysis by Targeted Mass Spectrometry Multiple Reaction Monitoring (MRM).
LC-MS/MS. A QTRAP 5500 Sciex hybrid quadrupole-linear ion trap system with a TurboIonSpray ion source in positive mode and equipped with a Sciex LC Exion liquid chromatography system was used to analyze tryptic digests of STAT3 protein samples treated with STAT3 inhibitors. Fractionation of the samples was done using a Waters Symmetry C18 column (100 Å, 3.5 μm, 4.6 mm×150 mm) and a 30 min linear gradient of acetonitrile with 0.1% formic acid at a flow rate of 300 uL/min. A transition list of cysteine-containing peptides with expected drug-cysteine adducts were generated in Skyline software and exported to the QTRAP mass spectrometer to developed acquisition methods. Resultant raw data files generated in the QTRAP were imported back into Skyline for analysis and additional processing.

STAT3 = biological target: T2, STAT3 (Homo sapiens, UniProt P40763); assay: STAT3 alkylation study, high resolution LC-MS/MS for unknown chemical adducts; format: biochemical; settings: vs. STAT3 incubated with DMSO
T2 construct: STAT3 (127-722) cDNA was cloned into a pET15b vector; made in house; host or cells: E. coli BL21 (DE), pET15b
Protocol: FIGS. 11A-11C show alkylation of STAT3βtr by iodoacetamide and NEM. […] The dotted line indicates the cutoff for a significant Z-score.
as §1, with “Formic acid was added the next day to 5% and each protein sample was diluted in 5 mM ammonium acetate containing 0.5% formic acid immediately prior to analysis by Targeted Mass Spectrometry Multiple Reaction Monitoring (MRM).” left out
High resolution LC/MS. An aliquot of the tryptic digests of STAT3 proteins treated with DMSO (control) and those treated with Stattic and TTI101 were analyzed by LC-MS/MS on an Ultimate 3000 RSLC-Nano chromatograph interfaced to an Orbitrap Fusion high-resolution mass spectrometer (Thermo Scientific, Waltham MA). All MS/MS data were analyzed using Sequest-HT (Thermo Scientific). […] To access for potential unknown modifications, the data was analyzed in MaxQuant using the dependent peptide search option (Tyanova, Temu & Cox, 2016). All peptides output list was analyzed by comparing Stattic, TTI101 and TTI101ox with DMSO treated samples as described in (Antinori, Michelot, Lescuyer, Müller & Acosta-Martin, 2019).

[1] = Glutathione reaction study (UV-HPLC stability with GSH); format: physicochemical
Protocol: The AUC of each compound measured at the times indicated by UV-HPLC and expressed as percent of the starting AUC of the peaks. Data are representative of four independently performed experiments.
Each reaction mixture was sampled at time 0 and every 5 minutes for 50 minutes; all samples were analyzed by HPLC. The amount of unreacted inhibitor was determined by measuring the area under the curve (AUC) and plotting this value as a percentage of the starting AUC as a function of time (FIG. 3). […] In contrast, there was no loss of TTI-101 in the presence of GSH.
Glutathione reaction studies. STAT3 inhibitors (10 ul of 10 mM stock in DMSO) were spiked into reaction buffer [50 mM HEPES pH7.5 containing 10 mM reduced glutathione (GSH)] the samples were mixed thoroughly and placed in an autosampler set at 20° C. The reactions were monitored by high performance liquid chromatography (HPLC) using an Exion LC Sciex unit equipped with a UV detector. The stationary phase used was a C18 Synergi™ 4 μm Fusion-RP 80 Å LC column (50×2 mm); the mobile phase was water (A) and acetonitrile (B). The elution process consisted of an isocratic step with 20% mobile phase B, followed by 80% B, for 2 minutes. The flow rate was maintained at 0.5 mL/min during the run. Measurements were conducted at intervals of 5 minutes for a period of 55 minutes total. The presence of the STAT3 inhibitors were quantified by calculating the area under the curves (AUCs) of the compound peaks at 260-295 nm.

DU-145 cells = assay: Seahorse XF Cell Mito Stress Test, oxygen consumption rate (OCR); format: cell-based, human
Protocol: FIGS. 1A-1C show the effects of STAT3 inhibitors on mitochondrial function. DU-145 cells were treated with the indicated STAT3 inhibitors at 30 μM for 2 Hrs.
DU-145 cells were treated with STAT3 inhibitors at 10-30 μM for 2 Hrs. Data are representative of 4 or more independent experiments.
ATP production, maximal respiration, proton leak, and spare respiratory capacity. […] Similarly.
Mitochondrial assays. DU-145 cells (2.5×10^4) were seeded per well in a XF24 plate and incubated at 37° C./5% CO2 in complete RPMI medium. After 12 Hrs complete medium was replaced with nutrient depleted four-day culture media: conditioned media (CM) and incubated for 4 Hrs. Cells were then treated for another 2 Hrs with STAT3 inhibitors prior to analysis using a Seahorse XF24 Analyzer. The Oxygen Consumption Rate (OCR) was measured in DMEM XF base medium containing 10 mM glucose and 2 mM glutamine and 1 mM pyruvate, before and after the sequential injection of oligomycin, FCCP and rotenone/antimycin A to final concentrations of 1 μM, 1 μM and 0.5 μM respectively. Basal and maximal respiration values were estimate by subtraction of OCR value after treatment of cells with rotenone and antimycin A (which reflects non-mitochondrial respiration) from OCR values in cells treated with oligomycin and FCCP respectively.

DRG transcriptome = assay: RNA-seq and IPA analysis of dorsal root ganglia of cisplatin-treated mice; format: in vivo, mouse; settings: cisplatin vs. PBS
Text: Expression of 1,973 genes was changed in response to cisplatin when compared to the PBS mice (PBS vs. Cis; n=3 male mice per group). […] A cutoff of (−0.2<log 2 Fold Change <0.2) and p=0.1 was used for the analysis. […] Gray indicates effect cannot be predicted.
The mechanistic network of four regulators identified STAT3 as an intermediate regulator. […] For example, for the TP53 network, 14 regulators were part of the mechanistic network which together influence expression of 481 genes and out of these 481 genes, 64 target genes are controlled by STAT3.
RNA-seq and transcriptome analysis of dorsal root ganglion (DRG). […] Total RNA was isolated with the RNeasy MinElute Cleanup Kit (Qiagen, Hilden, Germany). Libraries were prepared with the Stranded mRNA-Seq kit (Kapa Biosystems, Wilmington, MA) following the manufacturer's guidelines. Stranded-mRNA seq was performed with a HiSeq4000 Sequencer (Illumina, San Diego, CA) with 76nt PE format by the RNA Sequencing Core at MD Anderson Cancer Center. Data analysis was performed as previously described (Chiu et al., 2018; Ma et al., 2019). Briefly, expression data of three samples per group were analyzed in R using bioconductor packages. STAR was used for alignment of paired-end reads to the mm10 version of the mouse reference genome; feature Counts was used to assign mapped sequence reads to genomic features, and DESeq2 was used to identify differentially expressed genes (padj<0.05). Quality check of raw and aligned reads was performed with FastQC and Qualimap. Next, we used Ingenuity Pathway Analysis (IPA; Qiagen Inc., https://www.qiagenbioinformatics.com/products/ingenuity-pathway-analysis/) for analysis of the canonical pathways implicated by cisplatin-induced transcriptome changes in DRG.

male C57BL/6 mice [2] = assay: Cisplatin model of chemotherapy-induced peripheral neuropathy (CIPN), von Frey mechanical allodynia; format: in vivo, mouse; settings: two cycles of 5 daily doses of 2.3 mg/kg followed by 5 days rest
Protocol: Data were analyzed by two-way ANOVA repeated measures. Time: P<0.001; Group: P<0.001; Interaction P<0.001. **P<0.01 Tukey multiple comparison test. Data are from a representative experiment out of two with similar results.
Male C57/B16 mice (n=4 per group) were treated with cisplatin (two rounds of 5 daily doses of 2.3 mg/kg i.p. followed by 5 days of rest). […] Data were analyzed by two-way ANOVA repeated measures. Time: P<0.001; Group: P<0.001; Interaction P<0.01. **P<0.01 Tukey multiple comparison test.
Peripheral neuropathy has been observed with several small-molecule STAT3 inhibitors in clinical-stage development (Bendell et al., 2014; Genini et al., 2017; Ogura et al., 2015). […] This model was selected because it was shown previously that it is mediated by mitochondrial damage in the peripheral nervous system (Krukowski et al., 2017; Maj, Ma, Krukowski, Kavelaars & Heijnen, 2017). […] (FIG. 12).
Pain measurements and chemotherapy-induced peripheral neuropathy (CIPN).

male C57BL/6 mice [3] = settings: Krukowski et al., 2017; cited from earlier work

T1 sequence (P40763 127-722 isoform P40763-3): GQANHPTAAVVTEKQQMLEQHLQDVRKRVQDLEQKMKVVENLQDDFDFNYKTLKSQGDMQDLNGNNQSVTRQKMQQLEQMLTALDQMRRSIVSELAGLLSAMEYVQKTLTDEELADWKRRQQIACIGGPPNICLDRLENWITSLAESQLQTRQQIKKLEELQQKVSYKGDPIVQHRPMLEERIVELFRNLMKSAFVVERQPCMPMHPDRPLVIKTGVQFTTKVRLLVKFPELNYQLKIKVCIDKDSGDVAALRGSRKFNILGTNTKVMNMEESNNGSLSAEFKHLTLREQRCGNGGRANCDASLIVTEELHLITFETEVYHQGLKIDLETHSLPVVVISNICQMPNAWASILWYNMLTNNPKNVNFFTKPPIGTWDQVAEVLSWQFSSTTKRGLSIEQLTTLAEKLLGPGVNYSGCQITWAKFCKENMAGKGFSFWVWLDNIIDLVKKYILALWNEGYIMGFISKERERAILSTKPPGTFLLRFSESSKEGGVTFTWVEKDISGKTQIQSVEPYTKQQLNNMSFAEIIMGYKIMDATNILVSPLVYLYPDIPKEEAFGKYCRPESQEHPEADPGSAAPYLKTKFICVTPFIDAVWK
T2 sequence (P40763 127-722 isoform P40763-3): as above

With CCN1C(=O)C=CC1=O [NEM, N-ethylmaleimide] as the compound, how does the “number of STAT3βtr peptides alkylated” value (STAT3βtr) read?
The value was 6 peptides.

Which “chemical adducts / mass shifts of STAT3 peptides, untargeted high resolution LC-MS/MS” value (STAT3) does the source give for O=[N+]([O-])c1ccc2c(c1)S(=O)(=O)C=C2 [Stattic] here?
The value was “adducts were detected”.

What about the “adducts on Cys containing STAT3 peptides (alkylation), targeted LC-MS/MS” value (STAT3βtr; STAT3βtr 10 μM, compound 100 μM, 37° C. overnight) of the same compound?
Its value is “covalent modification of STAT3”.

And the “alkylated peptides, targeted and untargeted LC-MS/MS” value (STAT3βtr; STAT3βtr tryptic digests, Qtrap 5500 and Orbitrap, FIGS. 4A-4C (Stattic))?
Its value is “eight”.

And the “unreacted inhibitor level (AUC) as percent of baseline in the presence of GSH” value ([1]; 100 μM in 50 mM HEPES pH 7.5, 10 mM GSH, within 5 minutes)?
The value was less than 10%.

And the “inhibitor level in the absence of GSH” value ([1]; without GSH)?
Its value is “remaining constant”.

What about the “OCR curves compared to DMSO control” value (DU-145 cells; 2 Hrs, 10 and 30 μM (3-fold and 10-fold TTI-101 IC50)) of the same compound?
The value was “did not consistently alter the OCR curves”.

Which “VEGF signaling (IPA comparison analysis)” value (DRG transcriptome) does the source give for N.N.[Cl][Pt][Cl] [cisplatin, reference compound] here?
The value was “predicted activation of VEGF signaling”.

And the “genes down in DRG” value (DRG transcriptome)?
The value was 675 genes.

And the “genes up in DRG” value (DRG transcriptome)?
Its value is 1,298 genes.

What about the “genes with changed expression in DRG” value (DRG transcriptome) of the same compound?
Its value is 1,973 genes.

What about the “induction of mechanical allodynia” value (male C57BL/6 mice [2]) of the same compound?
Its value is “induces mechanical allodynia”.

And the “duration of induced mechanical allodynia” value (male C57BL/6 mice [3])?
Its value is “at least 75 days”.

For C[C@H]1COC2=C1C(=O)C(=O)c1c2ccc2c1CCCC2(C)C [cryptotanshinone], which “reduction in ATP level production” value (DU-145 cells; 30 μM) is on record?
Its value is 50%.

Which “number of STAT3βtr peptides alkylated” value (STAT3βtr) does the source give for NC(=O)CI [iodoacetamide] here?
Its value is 6 peptides.
